Laboratory results published in ChEMBL document CHEMBL1129993, “Synthesis and biological characterization of 1,4,5,6-tetrahydropyrimidine and 2-amino-3,4,5,6-tetrahydropyridine derivatives as selective m1 agonists” (J Med Chem, 1997).

Assays:
[1] = target: T1, Muscarinic acetylcholine receptor M2 (Mus musculus) (UniProt Q9ERZ4); conditions: A9L
T1 sequence (whole entry): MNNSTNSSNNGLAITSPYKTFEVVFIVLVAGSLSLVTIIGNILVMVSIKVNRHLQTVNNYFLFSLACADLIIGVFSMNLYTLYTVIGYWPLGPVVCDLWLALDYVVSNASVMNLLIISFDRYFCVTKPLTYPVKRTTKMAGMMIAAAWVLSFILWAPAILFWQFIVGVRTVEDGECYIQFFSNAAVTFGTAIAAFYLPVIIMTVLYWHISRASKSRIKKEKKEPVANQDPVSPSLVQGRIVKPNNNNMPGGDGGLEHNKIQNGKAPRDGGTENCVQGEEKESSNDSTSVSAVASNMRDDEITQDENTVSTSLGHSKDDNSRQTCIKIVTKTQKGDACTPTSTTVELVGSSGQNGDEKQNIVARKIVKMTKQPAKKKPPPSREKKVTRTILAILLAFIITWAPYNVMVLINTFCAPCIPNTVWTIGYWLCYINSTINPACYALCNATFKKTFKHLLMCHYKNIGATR

[2] = target: Muscarinic acetylcholine receptor M3 (Mus musculus) (UniProt Q9ERZ3); experiment: Binding affinity (high) of [3H](R)-QNB binding to Muscarinic acetylcholine receptor M3 expressed in A9 L cell line; type: cell-based; conditions: A9L
[3] = target: Muscarinic acetylcholine receptor M3 (Mus musculus) (UniProt Q9ERZ3); experiment: Percent inhibition (high) of [3H](R)-QNB binding to Muscarinic acetylcholine receptor M3 expressed in A9 L cell line; type: cell-based; conditions: A9L, concentration not given here
[4] = target: Muscarinic acetylcholine receptor M3 (Mus musculus) (UniProt Q9ERZ3); conditions: A9L
Description: Binding affinity (low) of [3H](R)-QNB binding to Muscarinic acetylcholine receptor M3 expressed in A9 L cell line

[5] = target: T2, Muscarinic acetylcholine receptor M1 (Mus musculus) (UniProt P12657); experiment: Percent inhibition (high) of [3H](R)-QNB binding to Muscarinic acetylcholine receptor M1 expressed in A9 L cell line in the absence of 300 uM GTP-gamma-S; type: cell-based; conditions: A9L
T2 sequence (whole entry): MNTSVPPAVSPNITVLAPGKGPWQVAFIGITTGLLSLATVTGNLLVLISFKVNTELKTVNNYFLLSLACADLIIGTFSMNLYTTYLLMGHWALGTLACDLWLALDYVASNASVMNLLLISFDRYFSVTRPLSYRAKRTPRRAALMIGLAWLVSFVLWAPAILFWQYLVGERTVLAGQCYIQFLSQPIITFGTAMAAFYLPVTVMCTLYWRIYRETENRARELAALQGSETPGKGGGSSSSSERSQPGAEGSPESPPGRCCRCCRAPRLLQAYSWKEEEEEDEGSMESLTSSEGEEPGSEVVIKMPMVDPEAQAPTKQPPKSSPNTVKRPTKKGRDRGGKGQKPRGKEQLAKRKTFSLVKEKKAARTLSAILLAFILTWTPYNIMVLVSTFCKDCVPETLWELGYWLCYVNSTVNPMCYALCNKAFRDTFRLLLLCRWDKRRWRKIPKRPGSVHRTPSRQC

[6] = target: T1, Muscarinic acetylcholine receptor M2 (Mus musculus); conditions: A9L; remark: listed apart in the source

Sequence of Muscarinic acetylcholine receptor M3 (Mus musculus) (Q9ERZ3 whole entry): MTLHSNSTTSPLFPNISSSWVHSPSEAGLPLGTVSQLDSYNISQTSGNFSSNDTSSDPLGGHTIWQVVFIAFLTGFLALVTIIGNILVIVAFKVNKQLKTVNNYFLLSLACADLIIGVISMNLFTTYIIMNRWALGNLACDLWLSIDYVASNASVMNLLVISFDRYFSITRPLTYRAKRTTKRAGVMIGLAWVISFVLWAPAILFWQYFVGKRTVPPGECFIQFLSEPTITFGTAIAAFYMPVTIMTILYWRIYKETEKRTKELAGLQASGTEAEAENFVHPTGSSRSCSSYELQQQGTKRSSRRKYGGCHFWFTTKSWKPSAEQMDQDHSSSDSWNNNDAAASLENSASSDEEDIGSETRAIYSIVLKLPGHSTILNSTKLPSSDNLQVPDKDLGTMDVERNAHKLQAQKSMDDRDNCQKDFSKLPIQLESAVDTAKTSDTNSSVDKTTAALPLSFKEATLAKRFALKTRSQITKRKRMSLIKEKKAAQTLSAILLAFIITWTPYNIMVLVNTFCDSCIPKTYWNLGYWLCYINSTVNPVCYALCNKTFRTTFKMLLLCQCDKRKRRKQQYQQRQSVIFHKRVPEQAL

| SMILES | KL [1] [nM] | KH [2] [nM] | inhibition [3] [%] | KL [4] [nM] | inhibition [5] [%] | KH [6] [nM] |
| --- | --- | --- | --- | --- | --- | --- |
| Cc1noc(C2=CCCN(C)C2)n1 | 0.087 | 16 | 29 | 0.46 | – | – |
| CCCC#Cc1noc(C2CN=CNC2)n1 (stereo not given) | – | – | – | – | 32.5 | – |
| CC#CCOC(=O)C1CN=CNC1 (stereo not given) | – | – | – | – | 23.4 | – |
| Cc1noc(C2CN=CNC2)n1 (stereo not given) | 0.46 | – | 95 | 0.57 | 30.9 | – |
| C#CCOC(=O)C1CN=CNC1 (stereo not given) | – | – | – | – | 31.5 | – |
| C[N+](C)(C)CCOC(N)=O | 12 | 56 | 19 | 8.4 | – | 0.81 |
| C#CCCOC(=O)C1CN=CNC1 (stereo not given) | – | – | – | – | 23.2 | – |
| COC(=O)C1CN=CNC1 (stereo not given) | 3.3 | – | – | 3.3 | 23.5 | – |
